Experimental data from publication PMC3871636 (PLoS ONE, 2013).
Counter-ions that a name gives are not always drawn.

Tests used:
[1] = target: double-labeled CYP3A4 C64/C121-DY/ER (Homo sapiens, UniProt P08684, A121C/C239S/C377S/C468A/C98S/S18F); experiment: Time-resolved LRET (phosphorescence lifetime measurements); settings: for τ1 (phosphorescence decay time with ligand) / F1 (fraction of first exponential) / τ2 (phosphorescence decay time with ligand) / τav (average phosphorescence lifetime with ligand): Table S1, protein (C64/C121)-ER/DY; for τ1 (phosphorescence decay time with ligand): bi-exponential fit; for F1 (fraction of first exponential) / τ2 (phosphorescence decay time with ligand) / τav (average phosphorescence lifetime with ligand) / R (interprobe distance with ligand), lifetime measurements / ΔR, lifetime measurements: same ligand concentrations
Sequence of double-labeled CYP3A4 C64/C121-DY/ER (P08684 with tags, fused parts or gaps S18F/C98S/A121C/C239S/C377S/C468A limits assumed): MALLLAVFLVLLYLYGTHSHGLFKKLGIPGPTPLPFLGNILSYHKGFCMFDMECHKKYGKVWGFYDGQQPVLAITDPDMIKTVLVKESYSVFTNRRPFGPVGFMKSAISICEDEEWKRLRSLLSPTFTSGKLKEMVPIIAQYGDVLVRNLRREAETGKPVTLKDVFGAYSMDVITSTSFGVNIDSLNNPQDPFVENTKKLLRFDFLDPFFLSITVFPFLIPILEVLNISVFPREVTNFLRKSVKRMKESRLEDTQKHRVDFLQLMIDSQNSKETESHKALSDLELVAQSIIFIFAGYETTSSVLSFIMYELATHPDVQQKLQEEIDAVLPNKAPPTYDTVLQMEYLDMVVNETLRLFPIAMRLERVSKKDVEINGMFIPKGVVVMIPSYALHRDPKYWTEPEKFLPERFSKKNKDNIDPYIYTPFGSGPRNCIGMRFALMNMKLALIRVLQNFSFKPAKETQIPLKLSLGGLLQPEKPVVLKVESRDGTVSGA
Procedure: (§1) All absorbance and fluorescence assays (including the time-resolved fluorescence measurements) were performed at a protein concentration ≤1 µM at 25°C with continuous stirring. Absorbance spectra were recorded with an S2000 rapid scanning CCD spectrometer (Ocean Optics). Ligand binding assays were done in 100 mM Na-Hepes buffer, pH 7.4, containing 0.5 mM EDTA.
Fluorescence-based ligand binding assays were done under anaerobic conditions. Anaerobiosis was achieved using an oxygen-scavenging system consisting of protecatechuate-3,4-dioxygenase (0.5 units/ml) and 5 mM protocatechuic acid. The steady state and time-resolved phosphorescence measurements were performed with the use of a Cary Eclipse fluorescence spectrophotometer (Varian/Agilent Technologies). The excitation wavelength was set to 540 nm. Spectra were taken from 650 to 860 nm with 100 µs delay.
The treatment of the time-resolved decay traces was performed using a bi-exponential approximation. The efficiency of time-resolved LRET was calculated using the equation [drawing 2] (Eq.2)
In this equation τda and τd designate the average lifetime of the excited state of the donor in the presence and absence of the acceptor, respectively. These average lifetimes are determined as τ = α1τ1+α2τ2, where τ1,2 and α1,2 stay for the lifetime and the relative amplitude of each of the two exponential terms. In our calculations of the lifetime in double-labeled C64/C468, C377/C468 and C64/C121 proteins we used the lifetimes of phosphorescence measured with the respective proteins labeled with ERIA at a label:protein ratio 2∶1 as the estimates of τd.
Distances were calculated using the equation: [drawing 3] (Eq.3) where R 0 is the Förster distance, and R is the distance between the donor and acceptor. R 0 was calculated with the use of PhotoChemCad software. In these calculations, we used the values of the orientation factor (κ^2) and the refractive index (n) of 0.667 and 1.4, respectively.

CYP3A4(C377/C468) mutant = CYP3A4(C377/C468) mutant (Homo sapiens, UniProt P08684, S18F, form not given); experiment: Ligand-induced spin shift, absorbance titration; assay type: binding; settings: C377/C468
Sequence of CYP3A4(C377/C468) mutant (P08684 13-503 S18F, form open): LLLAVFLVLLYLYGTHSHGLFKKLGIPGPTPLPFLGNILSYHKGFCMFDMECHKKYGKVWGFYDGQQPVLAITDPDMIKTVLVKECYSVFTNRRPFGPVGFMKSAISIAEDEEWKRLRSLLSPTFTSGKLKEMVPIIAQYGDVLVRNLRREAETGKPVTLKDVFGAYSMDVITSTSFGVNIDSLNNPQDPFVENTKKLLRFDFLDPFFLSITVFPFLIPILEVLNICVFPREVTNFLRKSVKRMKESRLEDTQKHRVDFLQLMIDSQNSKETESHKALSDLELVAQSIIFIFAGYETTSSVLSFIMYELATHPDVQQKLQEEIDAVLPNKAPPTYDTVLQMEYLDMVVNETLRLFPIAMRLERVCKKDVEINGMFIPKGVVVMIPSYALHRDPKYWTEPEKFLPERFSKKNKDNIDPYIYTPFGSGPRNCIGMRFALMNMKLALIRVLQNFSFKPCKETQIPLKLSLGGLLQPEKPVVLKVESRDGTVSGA
In short: (§2)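 Ligand binding monitored by absorbance titration at ≤1 µM protein, 25°C with stirring, in 100 mM Na-Hepes pH 7.4 with 0.5 mM EDTA. Spectra were resolved by PCA into low-spin, high-spin and Type II-bound ferric states; high-spin fraction versus ligand concentration was fitted with offset and scaling factor.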

[2] = target: double-labeled CYP3A4 C64/C468-ER/DY (Homo sapiens, UniProt P08684, S18F, form not given); experiment: Ligand-induced spin shift, absorbance titration; assay type: binding; settings: (C64/C468)-ER/DY
Sequence of double-labeled CYP3A4 C64/C468-ER/DY (P08684 13-503 S18F, form open): as above
In short: as §2

CYP3A4(C64/C468) mutant = CYP3A4(C64/C468) mutant (Homo sapiens, UniProt P08684, S18F, form not given); experiment: Ligand-induced spin shift, absorbance titration; assay type: binding; settings: C64/C468
Sequence of CYP3A4(C64/C468) mutant (P08684 13-503 S18F, form open): as above
In short: as §2

[3] = target: CYP3A4 (double-labeled C64/C468-ER/DY) (Homo sapiens, UniProt P08684, form not given/S18F); experiment: Ligand-induced spin shift, absorbance titration; assay type: binding; settings: human, purified double-labeled CYP3A4 C64/C468-ER/DY protein, pH 7.4; read-out: K D or S 50
Sequence of CYP3A4 (double-labeled C64/C468-ER/DY) (P08684 13-503 S18F, form open): as above
In short: as §2

CYP3A4(C64/C121) mutant = CYP3A4(C64/C121) mutant (Homo sapiens, UniProt P08684, A121C/C239S/C377S/C468A/C98S/S18F); experiment: Ligand-induced spin shift, absorbance titration
Sequence of CYP3A4(C64/C121) mutant (P08684 with tags, fused parts or gaps S18F/C98S/A121C/C239S/C377S/C468A limits assumed): as the sequence (P08684 with tags, fused parts or gaps S18F/C98S/A121C/C239S/C377S/C468A limits assumed) above
Procedure: as §1
(§3) Absorbance spectra obtained in titration experiments were analyzed with a principal component analysis (PCA) procedure complemented with least-square approximation of the principal vectors with a combination of the prototypical spectra of the CYP3A4 low-spin, high-spin and Type II-substrate-bound ferric CYP3A4 P450 states as described, [31].
(§4) When fitting the results of titration experiments, where the changes in the monitored signal A S (fraction of the enzyme in the high-spin state, intensity or the lifetime of the donor phosphorescence at a given substrate concentration) were assumed to be proportional to [ES], this equation was complemented with the offset A 0 and the scaling factor A max to yield the following relationship: [drawing 5] (Eq.5)

[4] = target: wild type CYP3A4 (N-terminally truncated Δ3-12, S18F) (Homo sapiens, UniProt P08684, S18F); experiment: Ligand-induced spin shift, absorbance titration
Sequence of wild type CYP3A4 (N-terminally truncated Δ3-12, S18F) (P08684 with tags, fused parts or gaps S18F): as the sequence (P08684 with tags, fused parts or gaps S18F/C98S/A121C/C239S/C377S/C468A limits assumed) above, with S88C, C111A, S229C, S367C, A458C counted along it
Procedure: as §1, §3, §4

[5] = target: double-labeled CYP3A4 C64/C468-DY/ER (Homo sapiens, UniProt P08684, S18F, form not given); experiment: Ligand-induced spin shift, absorbance titration; assay type: binding; settings: (C64/C468)-DY/ER
Sequence of double-labeled CYP3A4 C64/C468-DY/ER (P08684 13-503 S18F, form open): as the sequence (P08684 13-503 S18F, form open) above
In short: as §2

[6] = target: CYP3A4 (double-labeled C64/C468-DY/ER) (Homo sapiens, UniProt P08684, form not given/S18F); experiment: Ligand-induced spin shift, absorbance titration; assay type: binding; settings: human, purified double-labeled CYP3A4 C64/C468-DY/ER protein, pH 7.4; read-out: K D or S 50
Sequence of CYP3A4 (double-labeled C64/C468-DY/ER) (P08684 13-503 S18F, form open): as above
In short: as §2

[7] = target: CYP3A4 (double-labeled (C64/C468)-ER/DY) (Homo sapiens, UniProt P08684, form not given/S18F); experiment: Steady-state LRET titration (delayed emission); assay type: binding; settings: human, purified double-labeled CYP3A4 (C64/C468)-ER/DY protein, pH 7.4; (C64/C468)-ER/DY; LRET titration; read-out: K d, steady-state fluorescence
Sequence of CYP3A4 (double-labeled (C64/C468)-ER/DY) (P08684 13-503 S18F, form open): as above
In short: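 Protein at ≤1 µM, 25°C, stirred, in 100 mM Na-Hepes pH 7.4 with 0.5 mM EDTA, kept anaerobic with a protocatechuate-3,4-dioxygenase/protocatechuic acid scavenger. Delayed emission (100 µs delay) recorded from 650 to 860 nm at 540 nm excitation, with PCA-resolved donor/acceptor intensities giving LRET efficiency and distances (κ² 0.667, n 1.4). Titration signals fitted to a binding equation with offset and scaling terms.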

[8] = target: CYP3A4 (double-labeled C377/C468-DY/ER) (Homo sapiens, UniProt P08684, form not given/S18F); experiment: Ligand-induced spin shift, absorbance titration; assay type: binding; settings: purified double-labeled CYP3A4 C377/C468-DY/ER protein, pH 7.4, read-out: K D or S 50
Sequence of CYP3A4 (double-labeled C377/C468-DY/ER) (P08684 13-503 S18F, form open): as above
In short: as §2

[9] = 1-PB 40 µM, ANF 100 µM, BCT 2.5 µM, cholesterol 100 µM, testosterone 100 µM
[10] = Table S2, protein C64/C121-ER/DY

Compound: OCCCCc1ccc2ccc3cccc4ccc1c2c34 [1-PB, 1-pyrenebutanol]
- τ1 (phosphorescence decay time with ligand) [1, 9]: 57 ± 1 µs
- F1 (fraction of first exponential) [1]: 35 ± 1%
- τ2 (phosphorescence decay time with ligand) [1]: 199 ± 12 µs
- τav (average phosphorescence lifetime with ligand) [1]: 149 ± 9 µs
- E (LRET efficiency with ligand), lifetime measurements ([1]; Table S2, protein C64/C121-ER/DY, 1-PB 40 µM, ANF 100 µM, BCT 2.5 µM, cholesterol 100 µM, testosterone 100 µM): 46 ± 5%
- R (interprobe distance with ligand), lifetime measurements [1, 10]: 35.4 ± 0.8 Å
- ΔR, lifetime measurements [1, 10]: 0.4 ± 0.8 Å
- Nh (Hill coefficient) (CYP3A4(C377/C468) mutant): 1.2±0.2
- ΔF HS (amplitude of ligand-induced spin shift) (CYP3A4(C377/C468) mutant): 29±9%
- Nh (Hill coefficient) [2]: 1.3±0.1
- ΔF HS (amplitude of ligand-induced spin shift) [2]: 18±2%
- Nh (Hill coefficient) (CYP3A4(C64/C468) mutant): 1.2±0.1
- ΔF HS (amplitude of ligand-induced spin shift) (CYP3A4(C64/C468) mutant): 43±5%
- Kd [3]: 5.4 ± 2.1 µM
- Kd (CYP3A4(C64/C121) mutant): 16 ± 8 µM
- Nh (Hill coefficient) (CYP3A4(C64/C121) mutant; C64/C121): 1.3±0.5
- ΔF HS (amplitude of ligand-induced spin shift) (CYP3A4(C64/C121) mutant; C64/C121): 17±10%
- Kd [4]: 9.5 ± 0.9 µM
- Nh (Hill coefficient) ([4]; W/T): 1.6±0.4
- ΔF HS (amplitude of ligand-induced spin shift) ([4]; W/T): 50±1%

Compound: O=c1cc(-c2ccccc2)oc2c1ccc1ccccc12 [ANF, α-naphthoflavone]
- F1 (fraction of first exponential) [1]: 43 ± 7%
- τ2 (phosphorescence decay time with ligand) [1]: 232 ± 22 µs
- τav (average phosphorescence lifetime with ligand) [1]: 159 ± 7 µs
- R (interprobe distance with ligand), lifetime measurements [1, 10]: 36.4 ± 0.5 Å
- ΔR, lifetime measurements [1, 10]: 1.3 ± 0.5 Å
- Nh (Hill coefficient) (CYP3A4(C377/C468) mutant): 1.4±0.2
- ΔF HS (amplitude of ligand-induced spin shift) (CYP3A4(C377/C468) mutant): 24±12%
- Nh (Hill coefficient) [5]: 1.5±0.1
- ΔF HS (amplitude of ligand-induced spin shift) [5]: 13±1%
- Kd [6]: 4.2 ± 0.9 µM
- Nh (Hill coefficient) (CYP3A4(C64/C468) mutant): 1.8±0.2
- ΔF HS (amplitude of ligand-induced spin shift) (CYP3A4(C64/C468) mutant): 39±8%
- Kd [7]: 17.3 ± 7.2 µM
- Kd (CYP3A4(C64/C121) mutant): 8.6 ± 1.6 µM
- Nh (Hill coefficient) (CYP3A4(C64/C121) mutant; human, pH 7.4): 1.3±0.4
- ΔF HS (amplitude of ligand-induced spin shift) (CYP3A4(C64/C121) mutant; human, pH 7.4): 19±4%
- Kd [4]: 7.4 ± 1.6 µM
- Nh (Hill coefficient) ([4]; human, pH 7.4): 1.9±0.3
- ΔF HS (amplitude of ligand-induced spin shift) ([4]; human, pH 7.4): 41±1%

Compound: CC(C)C[C@H]1C(=O)N2CCC[C@H]2[C@]2(O)O[C@](NC(=O)[C@@H]3C=C4c5cccc6[nH]c(Br)c(c56)C[C@H]4N(C)C3)(C(C)C)C(=O)N12 [Bromocriptine, Bromocriptine mesylate]
- increase in the interprobe distance ([1]; C64/C121-DY/ER, stated for both steady-state and lifetime experiments): 1.3 Å
- τ1 (phosphorescence decay time with ligand) [1, 9]: 75 ± 13 µs
- F1 (fraction of first exponential) [1]: 49 ± 5%
- τ2 (phosphorescence decay time with ligand) [1]: 242 ± 15 µs
- τav (average phosphorescence lifetime with ligand) [1]: 159 ± 2 µs
- R (interprobe distance with ligand), lifetime measurements [1, 10]: 36.4 ± 0.1 Å
- ΔR, lifetime measurements [1, 10]: 1.3 ± 0.1 Å
- Kd [8]: 0.93 ± 0.6 µM
- Kd [3]: 0.28 ± 0.1 µM
